These results are taken from US20260258064A1 (SIRONAX LTD., priority 2023, published 2026).

Molecules are shown by their SMILES. pIC50: −log10 of the molar value. A value given as a limit tells only on which side of the number the result lay.

The target in the assay is T1, SARM1 (50-724) (Homo sapiens, UniProt Q6SZW1).
T1 construct: Purified SARM1 (50-724) with a final concentration of 2 nM was pre-incubated with a test compound
T1 sequence (Q6SZW1 50-724): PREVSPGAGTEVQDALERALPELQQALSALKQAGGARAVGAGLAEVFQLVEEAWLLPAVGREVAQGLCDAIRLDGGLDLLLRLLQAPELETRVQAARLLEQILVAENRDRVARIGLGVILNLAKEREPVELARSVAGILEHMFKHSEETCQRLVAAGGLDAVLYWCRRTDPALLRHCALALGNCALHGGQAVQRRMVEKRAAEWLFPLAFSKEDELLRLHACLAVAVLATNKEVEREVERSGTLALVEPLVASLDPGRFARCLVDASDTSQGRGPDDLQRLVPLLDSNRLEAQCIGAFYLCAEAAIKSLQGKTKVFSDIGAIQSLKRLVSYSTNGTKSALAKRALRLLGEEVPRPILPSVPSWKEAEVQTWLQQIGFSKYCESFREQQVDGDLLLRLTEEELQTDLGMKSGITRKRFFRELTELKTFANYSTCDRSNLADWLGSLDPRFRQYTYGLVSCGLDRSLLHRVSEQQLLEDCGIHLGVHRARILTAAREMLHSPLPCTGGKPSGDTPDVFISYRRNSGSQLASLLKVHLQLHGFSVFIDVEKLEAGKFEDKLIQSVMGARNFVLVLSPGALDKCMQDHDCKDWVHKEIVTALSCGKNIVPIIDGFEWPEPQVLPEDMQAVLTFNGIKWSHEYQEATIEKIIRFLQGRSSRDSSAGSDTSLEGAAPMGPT
The assay can be described thus: SARM1 (50-724) enzymatic assay (LC-MS/MS). The settings on record: Purified SARM1 (50-724) 2 nM, NMN as activator, NAD+ as substrate, 1 h at room temperature, read-out: IC50 (SARM1 inhibitory activity). In kind it is biochemical. A digest of the protocol: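 Human SARM1 (50-724), 2 nM, pre-incubated 15 min at room temperature with compound in Dulbecco's PBS. Reaction started with 200 µM NMN (activator) plus […] NAD^+ substrate, run 1 h at room temperature, quenched with 70% acetonitrile. Turnover quantified by LC-MS/MS; IC50 reported.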
For `CS(=O)(=O)CCc1cc(-n2cnnc2-c2nc3cc(C(F)(F)F)ccc3[nH]2)c(OC(F)(F)F)cn1` [Compound 254, 2-(4-(2-(2-(methylsulfonyl)ethyl)-5-(trifluoromethoxy)pyridin-4-yl)-4H-1,2,4-triazol-3-yl)-5-(trifluoromethyl)-1H-benzo[d]imidazole], the pIC50 is no less than 7.00.

As for `CC(C)(O)COc1ccc(OC(F)(F)F)c(-n2cnnc2-c2nc3cc(C(F)(F)F)ccc3[nH]2)n1` [Compound 255, 2-methyl-1-((5-(trifluoromethoxy)-6-(3-(5-(trifluoromethyl)-1 H-benzo[d]imidazol-2-yl)-4H-1,2,4-triazol-4-yl)pyridin-2-yl)oxy)propan-2-ol], the negative-log IC50 (pIC50) is no less than 7.00.

For the compound `CC(C)(O)CCOc1ccc(OC(F)(F)F)c(-n2cnnc2-c2nc3cc(C(F)(F)F)ccc3[nH]2)n1` [Compound 256, 2-methyl-4-((5-(trifluoromethoxy)-6-(3-(5-(trifluoromethyl)-1H-benzo[d]imidazol-2-yl)-4H-1,2,4-triazol-4-yl)pyridin-2-yl)oxy)butan-2-ol], the negative logarithm of the IC50 (pIC50) was no less than 7.00.

For the compound `Cn1ncc(C(F)(F)F)c1-n1cnnc1-c1nc2cc(C(F)(F)F)ccc2[nH]1` [Compound 257, 2-(4-(1-methyl-4-(trifluoromethyl)-1H-pyrazol-5-yl)-4H-1,2,4-triazol-3-yl)-5-(trifluoromethyl)-1H-benzo[d]imidazole], the pIC50 is no less than 7.00.

On to `FC(F)(F)c1ccc2[nH]c(-c3nncn3-c3cnccc3C(F)(F)F)cc2c1` [Compound 258, 5-(trifluoromethyl)-2-(4-(4-(trifluoromethyl)pyridin-3-yl)-4H-1,2,4-triazol-3-yl)-1H-indole], for which the pIC50 is no less than 7.00.

Regarding `Fc1c(-c2nncn2-c2cnccc2C(F)(F)F)[nH]c2ccc(C(F)(F)F)cc12` [Compound 259, 3-fluoro-5-(trifluoromethyl)-2-(4-(4-(trifluoromethyl)pyridin-3-yl)-4H-1,2,4-triazol-3-yl)-1H-indole], the negative logarithm of the IC50 (pIC50) was no less than 7.00.

Take `CC(F)(F)c1ccncc1-n1cnnc1-c1nc2cc(C(F)(F)F)ccc2[nH]1` [Compound 260, 2-(4-(4-(1,1-Difluoroethyl)pyridin-3-yl)-4H-1,2,4-triazol-3-yl)-5-(trifluoromethyl)-1H-benzo[d]imidazole]: the negative logarithm of the IC50 (pIC50) is no less than 7.00.

In the case of `OCc1cccc(OC(F)(F)F)c1-n1cnnc1-c1nc2cc(C(F)(F)F)ccc2[nH]1` [Compound 261, (3-(trifluoromethoxy)-2-(3-(5-(trifluoromethyl)-1H-benzo[d]imidazol-2-yl)-4H-1,2,4-triazol-4-yl)phenyl)methanol], the negative-log IC50 (pIC50) was no less than 7.00.

As to `FC(F)(F)Oc1cnc(CC2COC2)cc1-n1cnnc1-c1nc2cc(C(F)(F)F)ccc2[nH]1` [Compound 262, 2-(4-(2-(oxetan-3-ylmethyl)-5-(trifluoromethoxy)pyridin-4-yl)-4H-1,2,4-triazol-3-yl)-5-(trifluoromethyl)-1H-benzo[d]imidazole], the pIC50 was no less than 7.00.

As to `OCCOc1cc(-n2cnnc2-c2nc3cc(C(F)(F)F)ccc3[nH]2)c(OC(F)(F)F)cc1F` [Compound 263, 2-(2-fluoro-4-(trifluoromethoxy)-5-(3-(5-(trifluoromethyl)-1H-benzo[d]imidazol-2-yl)-4H-1,2,4-triazol-4-yl)phenoxy)ethan-1-ol], the pIC50 was no less than 7.00.

With `FC(F)(F)Oc1cnc(-n2cccn2)cc1-n1cnnc1-c1nc2cc(C(F)(F)F)ccc2[nH]1` [Compound 264, 2-(4-(2-(1H-pyrazol-1-yl)-5-(trifluoromethoxy)pyridin-4-yl)-4H-1,2,4-triazol-3-yl)-5-(trifluoromethyl)-1H-benzo[d]imidazole], the pIC50 is no less than 7.00.

Regarding `OCCc1cc(-n2cnnc2-c2nc3cc(C(F)(F)F)ccc3[nH]2)c(OC(F)(F)F)cn1` [Compound 265], the negative-log IC50 (pIC50) was no less than 7.00.

In the case of `O=C(O)c1cc(-n2cnnc2-c2nc3cc(C(F)(F)F)ccc3[nH]2)c(OC(F)(F)F)cn1` [Compound 266, 5-(trifluoromethoxy)-4-(3-(5-(trifluoromethyl)-1H-benzo[d]imidazol-2-yl)-4H-1,2,4-triazol-4-yl)picolinic acid], the negative logarithm of the IC50 (pIC50) is no less than 7.00.

For the compound `CS(=O)(=O)CCOc1ccc(OC(F)(F)F)c(-n2cnnc2-c2nc3cc(C(F)(F)F)ccc3[nH]2)n1` [Compound 267], the negative logarithm of the IC50 (pIC50) was no less than 7.00.

Regarding `Cc1nocc1-n1cnnc1-c1nc2cc(C(F)(F)F)ccc2[nH]1` [Compound 269, 3-methyl-4-(3-(5-(trifluoromethyl)-1H-benzo[d]imidazol-2-yl)-4H-1,2,4-triazol-4-yl)isoxazole], the negative logarithm of the IC50 (pIC50) is less than 6.00.

As for `Fc1cc(C2CC2)cc2nc(-c3nncn3-c3cnccc3C(F)(F)F)[nH]c12` [Compound 270, 5-cyclopropyl-7-fluoro-2-(4-(4-(trifluoromethyl)pyridin-3-yl)-4H-1,2,4-triazol-3-yl)-1H-benzo[d]imidazole], the negative logarithm of the IC50 (pIC50) was no less than 7.00.

On to `FC(F)(F)Oc1ccc(OC2COC2)cc1-n1cnnc1-c1nc2cc(C(F)(F)F)ccc2[nH]1` [Compound 271, 2-(4-(5-(oxetan-3-yloxy)-2-(trifluoromethoxy)phenyl)-4H-1,2,4-triazol-3-yl)-5-(trifluoromethyl)-1H-benzo[d]imidazole], for which the pIC50 is no less than 7.00.

As for `Cc1ncsc1-n1cnnc1-c1nc2cc(C(F)(F)F)ccc2[nH]1` [Compound 272, 4-methyl-5-(3-(5-(trifluoromethyl)-1H-benzo[d]imidazol-2-yl)-4H-1,2,4-triazol-4-yl)thiazole], the pIC50 was less than 6.00.

`FC(F)(F)c1ccc2[nH]c(-c3oncc3-c3cccc(Cl)c3Cl)nc2c1` [Compound 273, 4-(2,3-dichlorophenyl)-5-(5-(trifluoromethyl)-1H-benzo[d]imidazol-2-yl)isoxazole]: the pIC50 is 6.30 to 7.00.

Consider `FC(F)(F)c1ccc2[nH]c(-c3n[nH]nc3-c3cccc(Cl)c3Cl)nc2c1` [Compound 274, 2-(5-(2,3-dichlorophenyl)-2H-1,2,3-triazol-4-yl)-5-(trifluoromethyl)-1H-benzo[d]imidazole], for which the pIC50 was 6.00 to 6.30.

Consider `FC(F)(F)Oc1ccc(OC2CC2)cc1-n1cnnc1-c1nc2cc(C(F)(F)F)ccc2[nH]1` [Compound 275, 2-(4-(5-cyclopropoxy-2-(trifluoromethoxy)phenyl)-4H-1,2,4-triazol-3-yl)-5-(trifluoromethyl)-1H-benzo[d]imidazole], for which the pIC50 is no less than 7.00.

With `C=Cc1ccc2[nH]c(-c3nncn3-c3cnccc3C(F)(F)F)nc2c1` [Compound 276, 2-(4-(4-(trifluoromethyl)pyridin-3-yl)-4H-1,2,4-triazol-3-yl)-5-vinyl-1H-benzo[d]imidazole], the negative logarithm of the IC50 (pIC50) is no less than 7.00.

For `CCc1ccc2[nH]c(-c3nncn3-c3cnccc3C(F)(F)F)nc2c1` [Compound 277, 5-ethyl-2-(4-(4-(trifluoromethyl)pyridin-3-yl)-4H-1,2,4-triazol-3-yl)-1H-benzo [d]imidazole], the pIC50 is no less than 7.00.

In the case of `CC(c1cc(F)c2[nH]c(-c3nncn3-c3cnccc3C(F)(F)F)nc2c1)C(F)(F)F` (centres unmarked) [Compound 278, 7-fluoro-2-(4-(4-(trifluoromethyl)pyridin-3-yl)-4H-1,2,4-triazol-3-yl)-5-(1,1,1-trifluoropropan-2-yl)-1H-benzo[d]imidazole], the negative logarithm of the IC50 (pIC50) was no less than 7.00.

For the compound `Cn1ccc(C(F)(F)F)c(-n2cnnc2-c2nc3cc(C(F)(F)F)ccc3[nH]2)c1=O` [Compound 279, 1-methyl-4-(trifluoromethyl)-3-(3-(5-(trifluoromethyl)-1H-benzo[d]imidazol-2-yl)-4H-1,2,4-triazol-4-yl)pyridin-2(1H)-one], the pIC50 is less than 6.00.

With `O=c1ccc(C(F)(F)F)c(-n2cnnc2-c2nc3cc(C(F)(F)F)ccc3[nH]2)[nH]1` [Compound 280, 5-(trifluoromethyl)-6-(3-(5-(trifluoromethyl)-1H-benzo[d]imidazol-2-yl)-4H-1,2,4-triazol-4-yl)pyridin-2(1H)-one], the pIC50 was no less than 7.00.

For `FC(F)(F)Oc1ccc(Oc2ncco2)cc1-n1cnnc1-c1nc2cc(C(F)(F)F)ccc2[nH]1` [Compound 281, 2-(4-(trifluoromethoxy)-3-(3-(5-(trifluoromethyl)-1H-benzo[d]imidazol-2-yl)-4H-1,2,4-triazol-4-yl)phenoxy)oxazole], the negative-log IC50 (pIC50) was no less than 7.00.

With `Fc1cc(CC(F)(F)F)cc2nc(-c3nncn3-c3cnccc3C(F)(F)F)[nH]c12` [Compound 282, 7-fluoro-5-(2,2,2-trifluoroethyl)-2-(4-(4-(trifluoromethyl)pyridin-3-yl)-4H-1,2,4-triazol-3-yl)-1H-benzo[d]imidazole], the negative-log IC50 (pIC50) was no less than 7.00.

As to `CS(=O)(=O)Cc1nnc(-c2nc3cc(C4CC4)cc(F)c3[nH]2)n1-c1cnccc1C(F)(F)F` [Compound 283, 5-cyclopropyl-7-fluoro-2-(5-((methylsulfonyl)methyl)-4-(4-(trifluoromethyl)pyridin-3-yl)-4H-1,2,4-triazol-3-yl)-1H-benzo[d]imidazole], the negative logarithm of the IC50 (pIC50) is no less than 7.00.
